Data from patent US10647598B2, “Antimicrobial and algicidal agent for cooling water system” (KURITA WATER INDUSTRIES LTD., priority 2013, dated 2020).

Columns and labels:
Algae A = experiment: Test tube algicidal test on algae A sampled from cooling tower A; type: cell-based, diatoms, containing green algae; set-up: key to the marks not given beside the values; settings: visual inspection after 3 days at north-side window; CSA and algicidal agent amounts per example as in Table 1
Description: (§1) A test water system containing algae was prepared as described below.
(§2) Secondary treated water obtained by filtrating sewage using a filter having a pore diameter of 0.1 μm was received in a beaker having a volume of 1 L, and to this secondary treated water, 1 g of algae sampled from each of cooling towers A, B, and C in which an antimicrobial treatment was performed using a chlorosulfamic acid was added. Algae A sampled from the cooling tower A were diatoms and contained green algae. Algae B sampled from the cooling tower B were primarily formed of green algae and contained blue-green algae and diatoms. Algae C sampled from the cooling tower C were primarily formed of blue-green algae and contained green algae and diatoms.
(§3) After being raveled and sufficiently dispersed in the beaker, the algae A, B, and C were each dispensed into test tubes.
(§4) In Examples 1 to 5 and Comparative Examples 8 to 11 and 13 to 16, a chlorosulfamic acid (abbreviated as “CSA”, and the addition amount represents the residual chlorine concentration) and one of 5-chloro-2-methyl-4-isothiazolone-3-one (abbreviated as “MIT”), 2,2-dibromo-3-nitrilopropion amide (abbreviated as “DBNPA”), and 2-bromo-2-nitro-1,3-propanediol (abbreviated as “BNP) were added to each test tube so as to have predetermined concentrations shown in Table 1. In Comparative Example 6, MIT was only added. In Comparative Example 7, DBNPA was only added. In Comparative Example 12, BNP was only added. In Comparative Example 17, no chemical agents were added. Subsequently, after the test tubes were left for 3 days at a north-side window so as not to be exposed to direct sunlight, the conditions of the algae were observed by visual inspection and evaluated in accordance with the following criteria.
(§5) <Evaluation Criteria> • −: Reduction (death) of algae is apparently observed from the start of the test. • ±: Condition is the same as that at the start of the test. • +: Slight increase of algae is observed as compared to the condition at the start of the test. • ++: Apparent increase of algae is observed as compared to the condition at the start of the test. • +++: Significant increase of algae is observed as compared to the condition at the start of the test.

Algae C = experiment: Test tube algicidal test on algae C sampled from cooling tower C; type: cell-based, blue-green algae, containing green algae and diatoms; set-up: key to the marks not given beside the values; settings: visual inspection after 3 days at north-side window; CSA and algicidal agent amounts per example as in Table 1
Description: as §1, §2, §3, §4, §5

Algae B = experiment: Test tube algicidal test on algae B sampled from cooling tower B; type: cell-based, green algae, containing blue-green algae and diatoms; settings: visual inspection after 3 days at north-side window; CSA and algicidal agent amounts per example as in Table 1
Description: as §1, §2, §3, §4, §5

algae A to C = experiment: Test tube algicidal test, overall assessment; type: cell-based; settings: Table 1, algae A to C, 3 days
Description: as §1, §2, §3
In Examples 1 to 5 and Comparative Examples 8 to 11 and 13 to 16, a chlorosulfamic acid (abbreviated as “CSA”, and the addition amount represents the residual chlorine concentration) and one of 5-chloro-2-methyl-4-isothiazolone-3-one (abbreviated as “MIT”), 2,2-dibromo-3-nitrilopropion amide (abbreviated as “DBNPA”), and 2-bromo-2-nitro-1,3-propanediol (abbreviated as “BNP) were added to each test tube so as to have predetermined concentrations shown in Table 1. In Comparative Example 6, MIT was only added. In Comparative Example 7, DBNPA was only added. In Comparative Example 12, BNP was only added. In Comparative Example 17, no chemical agents were added. Subsequently, after the test tubes were left for 3 days at a north-side window so as not to be exposed to direct sunlight, the conditions of the algae were observed by visual inspection and evaluated in accordance with the following criteria. […]

SMILES	Evaluation Results Algae A (Algae A)	Evaluation Results Algae C (Algae C)	Evaluation Results Algae B (Algae B)	Algicidal effect, assessment in words (algae A to C)
O=S(=O)(O)NCl [Comparative Example 1, chlorosulfamic acid]	+++	+++	++	
O=S(=O)(O)NCl [compound 4, chlorosulfamic acid]	+++	++	+	a sufficient effect also cannot be obtained
N#CC(Br)(Br)C(N)=O [Comparative Example 7, 2,2-dibromo-3-nitrilopropion amide]	++	+++	+	
O=S(=O)(O)NCl [compound 2, chlorosulfamic acid]	+++	+++	++	
O=S(=O)(O)NCl [compound 3, chlorosulfamic acid]	+++	+++	++	
O=S(=O)(O)NCl [compound 5, chlorosulfamic acid]	+++	++	+	a sufficient effect also cannot be obtained
Cn1sc(Cl)cc1=O [Comparative Example 6, 5-chloro-2-methyl-4-isothiazolone-3-one]	++	+++	+	a sufficient effect cannot be obtained
O=[N+]([O-])C(Br)(CO)CO [Comparative Example 12, 2-bromo-2-nitro-1,3-propanediol]	++	+++	++	
